Laboratory results from ChEMBL document CHEMBL1201862, “PubChem BioAssay data set” (2004).
Calls of active or inactive are those of the source.

Legend:
Bcl-2-like protein 10 = molecular target: T1, Bcl-2-like protein 10 (Homo sapiens, UniProt Q9HD36); test: Bcl-B/TR3 peptide binding disruption – biochemical, fluorescence polarization, FITC-TR3 peptide, selectivity assay for Bfl-1 inhibitor project, primary screen (AID 748);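 also: fluorescence polarization from a fluorescein-labelled TR3 peptide binding purified Bcl-B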
T1 sequence (Q9HD36 whole entry): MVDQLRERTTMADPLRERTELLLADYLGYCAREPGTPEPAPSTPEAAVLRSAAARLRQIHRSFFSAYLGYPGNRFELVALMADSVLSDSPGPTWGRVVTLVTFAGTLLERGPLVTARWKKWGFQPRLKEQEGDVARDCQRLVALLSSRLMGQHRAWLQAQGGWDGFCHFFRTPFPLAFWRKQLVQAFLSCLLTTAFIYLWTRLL

[1] = molecular target: T2, Histone-lysine N-methyltransferase NSD2 (Homo sapiens, UniProt O96028); assay type: biochemical
T2 sequence (O96028 whole entry): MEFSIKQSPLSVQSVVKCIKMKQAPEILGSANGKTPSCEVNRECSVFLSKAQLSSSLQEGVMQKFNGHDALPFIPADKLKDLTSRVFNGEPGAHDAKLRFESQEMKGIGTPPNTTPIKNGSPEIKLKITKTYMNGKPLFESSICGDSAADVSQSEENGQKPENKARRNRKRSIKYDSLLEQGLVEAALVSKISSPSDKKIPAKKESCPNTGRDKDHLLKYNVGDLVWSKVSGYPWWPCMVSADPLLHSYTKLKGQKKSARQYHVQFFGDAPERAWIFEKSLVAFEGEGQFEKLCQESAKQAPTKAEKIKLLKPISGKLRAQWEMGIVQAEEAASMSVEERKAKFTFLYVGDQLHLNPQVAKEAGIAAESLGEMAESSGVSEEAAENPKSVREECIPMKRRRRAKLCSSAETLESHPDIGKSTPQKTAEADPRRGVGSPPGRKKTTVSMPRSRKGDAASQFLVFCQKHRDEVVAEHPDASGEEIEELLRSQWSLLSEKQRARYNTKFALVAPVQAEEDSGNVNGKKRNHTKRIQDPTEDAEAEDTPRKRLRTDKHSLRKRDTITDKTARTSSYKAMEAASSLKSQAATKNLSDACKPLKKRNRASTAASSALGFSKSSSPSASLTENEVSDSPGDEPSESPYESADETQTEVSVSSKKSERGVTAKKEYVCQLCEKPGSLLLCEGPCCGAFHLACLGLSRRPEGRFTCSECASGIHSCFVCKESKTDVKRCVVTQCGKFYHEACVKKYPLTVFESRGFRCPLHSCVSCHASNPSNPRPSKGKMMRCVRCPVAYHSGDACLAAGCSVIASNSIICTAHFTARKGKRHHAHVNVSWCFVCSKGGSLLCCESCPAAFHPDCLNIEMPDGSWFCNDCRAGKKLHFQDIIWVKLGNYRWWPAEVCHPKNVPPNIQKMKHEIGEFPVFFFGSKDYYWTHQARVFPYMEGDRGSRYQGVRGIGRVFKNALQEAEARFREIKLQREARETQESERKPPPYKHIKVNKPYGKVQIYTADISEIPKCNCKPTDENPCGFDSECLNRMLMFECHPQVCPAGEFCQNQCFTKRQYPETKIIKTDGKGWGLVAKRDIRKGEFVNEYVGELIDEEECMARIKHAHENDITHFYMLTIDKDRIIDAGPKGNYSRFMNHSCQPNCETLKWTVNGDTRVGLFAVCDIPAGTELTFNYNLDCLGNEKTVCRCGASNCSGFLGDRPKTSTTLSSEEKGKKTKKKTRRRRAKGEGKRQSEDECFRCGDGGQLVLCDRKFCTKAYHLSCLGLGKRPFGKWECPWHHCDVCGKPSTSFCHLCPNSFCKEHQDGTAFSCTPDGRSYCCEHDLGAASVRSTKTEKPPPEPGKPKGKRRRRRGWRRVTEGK

[2] = HEK-293T cell viability reduction – luminescence, B-cell screen hits, cytotoxicity control for BCR NF-kB inhibitor project, dose response (AID 489021); assay type: functional, cell-based;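 also: HEK-293T cells carrying an NF-kB luciferase reporter; cells exposed to compound for about 14 hours before viability readout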
[3] = molecular target: T3, Sentrin-specific protease 8 (Homo sapiens, UniProt Q96LD8); assay type: functional;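 also: luminescence read-out of SENP8 inhibition, dose-response confirmation following an ultra-high-throughput screen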
T3 sequence (Q96LD8 whole entry): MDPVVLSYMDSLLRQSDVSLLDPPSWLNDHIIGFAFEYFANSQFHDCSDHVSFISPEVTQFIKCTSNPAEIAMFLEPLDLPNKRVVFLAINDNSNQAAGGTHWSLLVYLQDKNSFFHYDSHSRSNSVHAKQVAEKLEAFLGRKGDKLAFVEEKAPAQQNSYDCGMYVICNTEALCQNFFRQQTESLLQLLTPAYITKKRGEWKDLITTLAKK

[4] = molecular target: T4, Sentrin-specific protease 7 (Homo sapiens, UniProt Q9BQF6); assay type: functional;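 also: Luminescence-based dose-response confirmation of ultra-high-throughput screening hits, measuring inhibition of SENP7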
T4 sequence (Q9BQF6 whole entry): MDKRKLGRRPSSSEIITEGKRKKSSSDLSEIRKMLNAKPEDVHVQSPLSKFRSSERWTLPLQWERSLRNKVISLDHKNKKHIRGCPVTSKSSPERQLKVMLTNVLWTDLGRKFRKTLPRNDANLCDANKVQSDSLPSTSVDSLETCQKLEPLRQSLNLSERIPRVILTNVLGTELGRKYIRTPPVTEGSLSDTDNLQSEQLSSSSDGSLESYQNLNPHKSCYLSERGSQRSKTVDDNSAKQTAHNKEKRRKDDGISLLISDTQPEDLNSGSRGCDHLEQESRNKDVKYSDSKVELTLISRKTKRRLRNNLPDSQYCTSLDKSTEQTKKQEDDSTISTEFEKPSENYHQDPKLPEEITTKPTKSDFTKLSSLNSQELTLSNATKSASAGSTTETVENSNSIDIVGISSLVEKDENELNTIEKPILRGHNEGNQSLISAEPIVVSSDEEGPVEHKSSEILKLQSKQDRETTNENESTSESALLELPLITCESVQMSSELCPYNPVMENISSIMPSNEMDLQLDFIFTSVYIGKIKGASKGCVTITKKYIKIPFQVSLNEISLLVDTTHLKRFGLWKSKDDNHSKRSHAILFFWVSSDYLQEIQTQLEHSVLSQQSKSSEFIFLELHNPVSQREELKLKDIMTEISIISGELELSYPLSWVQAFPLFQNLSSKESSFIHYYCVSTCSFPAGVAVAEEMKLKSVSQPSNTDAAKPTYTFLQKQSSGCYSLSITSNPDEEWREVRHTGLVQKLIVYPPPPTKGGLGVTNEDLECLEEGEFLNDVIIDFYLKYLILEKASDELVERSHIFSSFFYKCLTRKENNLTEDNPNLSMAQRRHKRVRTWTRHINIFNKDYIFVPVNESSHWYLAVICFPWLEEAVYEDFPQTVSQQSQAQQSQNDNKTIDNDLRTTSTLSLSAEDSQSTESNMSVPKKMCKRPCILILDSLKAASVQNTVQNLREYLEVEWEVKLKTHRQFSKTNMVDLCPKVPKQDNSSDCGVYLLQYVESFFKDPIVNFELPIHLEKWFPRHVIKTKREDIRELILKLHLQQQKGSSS

With `CC1CC(C)CN(C(=O)c2ccc3c(c2NCCO)C(=O)c2ccccc2C3=O)C1` (stereo not given) the IC50 (Bcl-2-like protein 10) was 29.1 µM (active) and the AC50 [1] was 19.3 µM (active).
In the case of `CCC(=O)N(C1=C(NC)C(=O)c2ccccc2C1=O)C(C)C`, the IC50 [2] is reported as > 80 µM (inactive), the IC50 [3] is reported as 25 µM (active) and the IC50 [4] is reported as 33.2 µM (active).
